Experimental findings from US12145920B2, “Lanthionine c-like protein 2 ligands, cells prepared therewith, and therapies using same” (NImmune Biopharma, Inc., priority 2019, dated 2024) are described below.

SMILES strings stand for the structures.

One test relates to Naïve CD4+ T cells. Kind of test: In vitro Treg differentiation of naive CD4+ T cells with BT-63. In kind it is cell-based, mice. On the procedure: Naïve CD4+ T cells can be isolated from the spleens of mice by magnetic sorting. The isolated cells can be incubated in anti-CD^3/anti-CD28 coated 96 well plates in Treg differentiation media. The Treg differentiation media can be Iscove's Modified Dulbecco's Medium (IMDM) media (ThermoFisher Scientific) supplemented with fetal bovine serum, HEPES, penicillin/streptomycin, L-glutamine, and differentiation agents. The Treg differentiation agents can be 10 nM all-trans-retinoic acid and 5 ng/mL TGF-β. Additional experiments can be conducted comparing differentiation in the Treg differentiation media with and without the addition of 10 ng/mL IL-2 or IL-12. Cells can be incubated with vehicle, 10 nM, or 100 nM BT-63 in differentiation media for 48 hours prior to assay. Prior to assay, cells can be stimulated with PMA and ionomycin for 6 hours.
Colonic lamina propria lymphocytes and cultured cells can be plated in 96 well plates (6×10^5 cells/well) and processed for immunophenotyping by flow cytometry as previously described. Briefly, cells can be incubated with fluorochrome conjugated antibodies to extracellular markers: CD45, CD4, CD3, CD25, CD8. Samples needing a secondary staining can be incubated with secondary antibodies, or streptavidin-conjugated fluorochrome. The samples can then be fixed and permeabilized. Cells can be incubated with antibodies to intracellular markers: Tbet, IFNγ, IL10, FOXP3, IL17, RORγT. Data can be acquired with a BD FACS Celesta flow cytometer and analyzed using FACS Diva software (BD Pharmingen).

Another test relates to influenza A (H1N1). As to the kind of experiment: Mouse model of influenza A virus infection. It is filed as in vivo, C57BL/6 mice. On the procedure: Mouse model. Eight- to ten-week old wild type C57BL/6 mice were anesthetized by isoflurane inhalation. Mice were infected with influenza A (H1N1) intranasally at a challenge titer of 350 pfu/mouse. Mice were treated daily with BT-63 at a dose of 20 mg/kg orally via gavage. Mice were weighed and scored daily over 12 days. Mice were euthanized at days 12 to measure immune responses by flow cytometry in the lungs.
Flow Cytometry. Lungs will be chopped into small pieces and collected into RPMI/FBS/CaCl2 buffer containing collagenase (300 U/mL) and DNase (50 U/mL) for digestion. Tissues will be digested for 60 to 90 minutes under stirring at 37° C. Resultant cellular suspensions will be filtered through 100 μm strainers, centrifuged (300×g, 8 min), and washed in fresh RPMI. Red blood cells will be lysed by hypotonic lysis and removed by filtration. Cells will be washed and plated for flow cytometry staining. Cells will be labeled with mixtures of extracellular (CD45, CD3, CD4, CD8, CD19, NK1.1, CD25, F4/80, CD11b, CD11c, Gr1, CX3CR1, CD64, SiglecF, Ly6C) and intracellular (Tbet, RORγT, FOXP3, IFNγ, IL6, IL10, IFNb) antibodies in a sequential live staining in 96-well plates. Data will be acquired using a FACS Celesta flow cytometer with FACSDiva software.

The next test deals with T1, LANCL2 protein (Homo sapiens, UniProt Q9NS86).
T1 construct: made in house; host or cells: Pichia pastoris
T1 sequence (Q9NS86 1-450): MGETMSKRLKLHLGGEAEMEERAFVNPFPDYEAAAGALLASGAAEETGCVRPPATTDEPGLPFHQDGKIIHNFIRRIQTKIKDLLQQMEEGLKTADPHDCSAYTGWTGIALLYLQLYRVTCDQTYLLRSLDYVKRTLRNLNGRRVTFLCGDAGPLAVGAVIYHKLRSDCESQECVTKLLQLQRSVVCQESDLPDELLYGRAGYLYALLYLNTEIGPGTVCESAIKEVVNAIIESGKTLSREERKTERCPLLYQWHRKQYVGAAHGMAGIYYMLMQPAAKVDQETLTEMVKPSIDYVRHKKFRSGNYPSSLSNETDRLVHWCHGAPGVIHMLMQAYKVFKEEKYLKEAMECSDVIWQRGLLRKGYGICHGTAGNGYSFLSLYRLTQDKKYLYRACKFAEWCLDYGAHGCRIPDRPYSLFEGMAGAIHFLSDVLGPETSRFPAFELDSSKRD
As to the kind of experiment: Surface plasmon resonance binding to LANCL2 (Biacore T200). As to conditions: SPR, immobilized LANCL2, analyte 0-40 μM. As to the method:
LANCL2 production and purification. LANCL2 was cloned into E. coli, amplified and transfected in Pichia pastoris. P. pastoris was plated onto adenine selective media. Stable transfected colonies were selected and grown within YPD broth at 30° C. for 24 hours, 240 RPM shaking. Starter culture was used to inoculate base media (1% yeast extract, 2% peptone, 1% sorbitol, 2% yeast nitrogen base) containing biotin and buffered with potassium phosphate. Inoculated base media was incubated for 48 hours at 30° C., 240 RPM. P. pastoris was then pelleted by centrifugation and resuspended in expression media (1% sorbitol, 2% yeast nitrogen base) containing biotin and buffered with potassium phosphate. Culture was induced daily for protein production through addition of methanol and incubated for a total of 4 days at 28° C., 240 RPM. After incubation, cells were pelleted by centrifugation and lysed by sonication. Recombinant LANCL2 protein was purified by fast protein liquid chromatography (AktaPrime) using immobilized metal affinity chromatography. Fractions of protein were eluted in 1 mL aliquots and evaluated for LANCL2 content.
Surface plasmon resonance. A Biacore T200 was used to evaluate binding to the LANCL2 protein. Protein was immobilized onto the CMS sensor chip. […] Based on the immobilized response values, theoretical Rmax values were calculated. […]

Where [1] appears, read: lung, day 12 post-infection, 20 mg/kg.
Setting [2] is: lungs, day 12 post-infection, 20 mg/kg.

For orientation: Kd means the constant that tells how readily two partners part at equilibrium. High values mean weaker binding, low ones tighter binding. In the case of `O=C(CN1CCN(C(=O)c2cccc(-c3nc4ccccc4[nH]3)n2)CC1)c1ccccc1` [BT-63, 2-(4-(6-(1H-benzo[d]imidazol-2-yl)picolinoyl)piperazin-1-yl)-1-phenylethanone], the “establishment of a CD25+ FOXP3+ subtype” value in the test on Naïve CD4+ T cells (100 nM, absence of IL-2) is given as “significantly increase”. The “CD25+ FOXP3+ cells” value in the test on Naïve CD4+ T cells (IL-12-treated samples) was “significantly higher levels”. For the same compound, the “mixed CD25+ Tbet+ subtype” value with Naïve CD4+ T cells (Treg differentiation with or without IL-2) was “not be statistically altered”. The “CD25+ Tbet+ cells” value with Naïve CD4+ T cells (addition of IL-12) is reported as “dose-dependent protection”. In the test with Naïve CD4+ T cells (base Treg differentiation media, also with IL-2 or IL-12), the STAT5a phosphorylation entry is on record as “phosphorylated in a greater ratio”. The FOXO1 phosphorylation entry with Naïve CD4+ T cells (base media and media containing IL-2, not IL-12) is on record as “similarly be affected”. Besides, the “CD25+ FOXP3+ cells” value in the test on Naïve CD4+ T cells (concentrations as low as 10 nM, presence of IL-2) is “significantly more”. Moreover, the “increase in survival compared to vehicle” value in the test on influenza A (H1N1) (12 days post-infection, 20 mg/kg oral daily) was “over 50%”. Further, the disease activity index entry in the test with influenza A (H1N1) (day 3 through day 12 post-infection, 20 mg/kg oral vs vehicle) was “significantly reduces”. In the test on influenza A (H1N1) (setting [1]), the “IL10+ CD8+ T cells” value is “increases” and the alveolar macrophages entry is given as “increases”. Further, in the test on influenza A (H1N1) (setting [2]), the “proportions of TNFa+ CD4+ T cells” value is given as “decreased” and the proportions of neutrophils result is on record as “decreased”. Besides, the Kd at LANCL2 protein was found to be 2740 nM.
